Values quoted from earlier work as cited in patent publication EP4656183A1, “TIRZEPATIDE COMPOSITIONS AND PREPARATION METHOD” (Galenicum Health SLU, priority 2024, dated 2025).

Conditions: buffer; several values = successive pKa values

pKa: ~ 7.5
SMILES: O=S(=O)(O)CCN1CCN(CCO)CC1 [HEPES]
